Data taken from patent US8119159B2, “Solid oral dosage form containing an enhancer” (Merrion Research III Limited, priority 1999, dated 2012).

Columns and labels:
[1] = Closed loop rat model, intraduodenal TRH with enhancer, serum TRH; format: in vivo; conditions: interduodenal bolus 500 or 1000 μg TRH with 35 mg enhancer
Method: Male Wistar rats (weight range 250 g-350 g) were anaesthetized with ketamine hydrochloride/acepromazine. […] All intraduodenal dose volumes (for samples and control) were 1 ml/kg. The proximal end of the segment was ligated and the loop was sprayed with isotonic saline (37° C.) to provide moisture and then replaced in the abdominal cavity avoiding distension. The incision was closed with surgical clips. A group of animals were administered TRH in PBS (100 μg in 0.2 ml) by subcutaneous injection as a reference.

Caco-2 monolayers [2] = assay: TEER of Caco-2 monolayers with MCFA sodium salts and 3H-TRH; format: cell-based; conditions: Caco-2 monolayers over 2 hours, sodium salts with 3H-TRH, concentrations of Table 1
Method: (§1) Cell Culture: Caco-2 cells were cultured in Dulbecco's Modified Eagles Medium (DMEM) 4.5 g/L glucose supplemented with 1% (v/v) non-essential amino acids; 10% fetal calf serum and 1% penicillin/streptomycin. […] The cells were grown and expanded in standard tissue culture flasks and were passaged once they attained 100% confluence. The Caco-2 cells were then seeded on polycarbonate filter inserts (Costar; 12 mm diameter, 0.4 μm pore size) at a density of 5×10^5 cells/cm^2 and incubated in six well culture plates with a medium change every second day. Confluent monolayers between day 20 and day 30 seeding on filters and at passages 30-40 were used throughout these studies.
(§2) Transepithelial Transport Studies: The effects of sodium salts of various MCFAs on the transport of ^3H-TRH (apical to basolateral flux) was examined as follows: 15.0 μCi/ml (0.2 μM) ^3H-TRH was added apically at time zero for TRH flux experiments. The transport experiments were performed in Hank's Balanced Salt Solution (HBSS) containing 25 mM N-[2-hydroxyethyl]-piperazine-N′-[2-ethanesulfonic acid] (HEPES) buffer, pH 7.4 at 37° C. Due to variations in solubilities, various concentrations of the different MCFA sodium salts and various apical buffers were used as shown in Table 1. In all cases the basolateral chamber contained regular HBSS+HEPES.
(§3) After removing the cell culture medium, the monolayers were placed in wells containing prewarmed HBSS (37° C.); 1 ml apically and 2 ml basolaterally. Monolayers were incubated at 37° C. for 30 mins. Then at time zero, apical HBSS was replaced with the relevant apical test solution containing the radiolabelled compounds with and without the enhancer compound. […] The plates were placed on an orbital shaker in an incubator (37° C.). Transport across the monolayers was followed by basolateral sampling (1 ml) at 30 min. intervals up to 120 mins. At each 30 min. interval each insert was transferred to a new well containing 2 ml fresh prewarmed HBSS. Apical stock radioactivity was determined by taking 10 μl samples at t=0 and t=120 mins. […] Mean values for ^3H-TRH concentrations were calculated for the apical and basolateral solutions at each time point.

[3] = system: plasma anti-factor Xa activity; assay: Dog study of oral heparin/enhancer tablets, anti-factor Xa and clinical assessment; format: in vivo; conditions: dogs, IR formulations, equivalent dose of heparin
Method: Tablets from batches 3, 7 and 15 in Tables 5 and 6 above were dosed orally to groups of five dogs in a single dose crossover study. […] Blood samples for anti-factor Xa analysis were collected from the jugular vein at various time points.

Caco-2 monolayers [4] = assay: 3H-TRH apical to basolateral transport (Papp) across Caco-2 monolayers; format: in vitro ADME; conditions: sodium salts at the concentrations of Table 1
Method: as §1, §2
as §3, with “At each 30 min. interval each insert was transferred to a new well containing 2 ml fresh prewarmed HBSS.” left out

[5] = system: plasma anti-factor Xa activity; assay: Closed-loop rat segment, intraileal USP heparin with enhancer, plasma anti-factor Xa; conditions: USP heparin 1000 iu
Method: The procedure carried out in Example 1 (a) above was repeated using USP heparin in place of TRH and dosing intraileally rather than intraduodenally. A mid-line incision was made in the abdomen and the distal end of the ileum located (about 10 cm proximal to the ileo-caecal junction). 7-9 cm of tissue was isolated and the distal end ligated, taking care to avoid damage to surrounding blood vessels. Heparin absorption as indicated by […] (APTT) response was measured by placing a drop of whole blood (freshly sampled from the tail artery) on the test cartridge of Biotrack 512 coagulation monitor. APTT measurements were taken at various time points.
Citrated blood samples were centrifuged at 3000 rpm for 15 mins. to obtain plasma for anti-factor Xa analysis. […] The control in each case is a solution of the same heparin concentration containing no enhancer.

[6] = Closed-loop rat segment, intraileal USP heparin with enhancer, APTT response; format: in vivo; conditions: USP heparin 1000 iu, sodium caprate 10 and 35 mg
Description: APTT measurements were taken at various time points.

[7] = oral conventional forms, cited from earlier work
in vivo = assay: in vivo
Method: Beagle dogs (10-15 Kg) were sedated with medetomidine (80 μg/kg) and an endoscope was inserted via the mouth, esophagus and stomach into the duodenum. The test solutions (10 ml), comprising leuprolide acetate (Mallinckrodt Inc, St. Louis, Mo.) with or without enhancer reconstituted in deionized water were administered intraduodenally via the endoscope. Following removal of the endoscope, sedation was reversed using atipamezole (400 μg/kg). The parenteral reference solutions comprising 1 mg Leuprolide reconstituted in 0.5 ml sterile water were administered intravenously and subcutaneously respectively.

[8] = system: plasma anti-factor Xa activity; assay: Intraduodenal LMWH with enhancers in rats (open loop), plasma anti-factor Xa; format: in vivo, rat; conditions: intraduodenal 1000 IU, absence of enhancer

CCCCCCCC(=O)[O-].[Na+] [Batch C8, sodium caprylate]
serum levels of TRH over the control TRH solution [1]: significantly increases

CCCCCCCCCC(=O)[O-].[Na+] [Batch C10, sodium caprate]
effect on TEER compared to the control (Caco-2 monolayers [2]): minimal reduction in TEER | anti-factor Xa response, NaC10 relative to NaC8 enhancer [3]: larger anti-factor Xa response | serum levels of TRH over the control TRH solution [1]: significantly increases | effect on permeability constant Papp for 3H-TRH compared to the control (Caco-2 monolayers [4]): considerable increases | anti-factor Xa activity relative to control heparin solution ([5]; enhancer 10 mg dose): significant increase | anti-factor Xa activity relative to control heparin solution ([5]; enhancer 35 mg dose): significant increase | heparin absorption by APTT response vs control heparin solution [6]: significant increase in absorption

CCCCCCCCCCCC(=O)[O-].[Na+] [Batch C12, sodium laurate]
effect on TEER compared to the control (Caco-2 monolayers [2]): some cell damage (reduction in TEER) | effect on permeability constant Papp for 3H-TRH compared to the control (Caco-2 monolayers [4]): considerable increases

CCCCCCCCCCCCCC(=O)[O-].[Na+] [Batch C14]
effect on TEER compared to the control (Caco-2 monolayers [2]): minimal reduction in TEER | effect on permeability constant Papp for 3H-TRH compared to the control (Caco-2 monolayers [4]): considerable increases

CCCCCCCCCCCCCCCCCC(=O)[O-].[Na+] [Batch C18]
effect on TEER compared to the control (Caco-2 monolayers [2]): minimal reduction in TEER

NCCCC(O)(P(=O)(O)O)P(=O)(O)O [alendronate]
further share of the dose absorbed excreted in the urine ([7]; over the next 64 hours): 5% | share of the dose absorbed excreted in the urine ([7]; within 8 hours): 40%

CCNC(=O)[C@@H]1CCCN1C(=O)[C@H](CCCNC(=N)N)NC(=O)[C@H](CC(C)C)NC(=O)[C@@H](CC(C)C)NC(=O)[C@H](Cc1ccc(O)cc1)NC(=O)[C@H](CO)NC(=O)[C@H](Cc1c[nH]c2ccccc12)NC(=O)[C@H](Cc1c[nH]cn1)NC(=O)[C@@H]1CCC(=O)N1 [leuprolide, leuprolide acetate]
bioavailability (in vivo): 8% | systemic delivery of leuprolide (in vivo; dog, in vivo): negligible

parnaparin sodium [LMWH]
systemic delivery of LMWH [8]: relatively poor
